Earlier results, collected in US7612060B2, “Triazoles and methods of use” (Amgen Inc., priority 2004, dated 2009).
Where no end group is shown, it is not given here.

Details: reported

In the case of RPPGFSPFR [BK, Bradykinin], the “half-life of BK in plasma” value is given as “approximately 17 seconds”.
